Target: T1, recombinant integrin α4β7 (Homo sapiens, UniProt P13612+P26010, DEL724-798)
T1 construct: purchased R&D Systems 5397-A3-050
T1 sequence (P13612 34-970 limits assumed): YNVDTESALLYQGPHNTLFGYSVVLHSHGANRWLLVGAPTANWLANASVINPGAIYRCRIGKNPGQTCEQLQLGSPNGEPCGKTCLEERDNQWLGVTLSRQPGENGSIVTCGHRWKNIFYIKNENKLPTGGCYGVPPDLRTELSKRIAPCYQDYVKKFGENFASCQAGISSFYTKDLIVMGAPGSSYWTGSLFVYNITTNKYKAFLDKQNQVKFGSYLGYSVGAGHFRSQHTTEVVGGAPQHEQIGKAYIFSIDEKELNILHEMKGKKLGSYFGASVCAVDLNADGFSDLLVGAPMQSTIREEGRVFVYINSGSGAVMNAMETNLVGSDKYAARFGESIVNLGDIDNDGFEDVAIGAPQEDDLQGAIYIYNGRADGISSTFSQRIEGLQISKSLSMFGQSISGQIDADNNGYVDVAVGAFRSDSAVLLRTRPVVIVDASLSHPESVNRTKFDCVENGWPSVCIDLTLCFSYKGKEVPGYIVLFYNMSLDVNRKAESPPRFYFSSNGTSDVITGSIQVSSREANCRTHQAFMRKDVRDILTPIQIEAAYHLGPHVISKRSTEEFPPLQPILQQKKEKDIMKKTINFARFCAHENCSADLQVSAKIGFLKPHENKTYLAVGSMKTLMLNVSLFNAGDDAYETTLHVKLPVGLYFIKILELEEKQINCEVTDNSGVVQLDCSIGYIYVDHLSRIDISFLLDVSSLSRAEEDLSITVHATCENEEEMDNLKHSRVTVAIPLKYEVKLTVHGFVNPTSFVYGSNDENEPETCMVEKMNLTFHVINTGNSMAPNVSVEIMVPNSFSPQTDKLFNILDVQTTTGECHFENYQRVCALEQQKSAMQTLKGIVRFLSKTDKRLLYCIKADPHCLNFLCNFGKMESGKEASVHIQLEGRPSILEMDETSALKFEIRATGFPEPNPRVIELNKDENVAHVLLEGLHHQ
T1 sequence (P26010 20-723 limits assumed): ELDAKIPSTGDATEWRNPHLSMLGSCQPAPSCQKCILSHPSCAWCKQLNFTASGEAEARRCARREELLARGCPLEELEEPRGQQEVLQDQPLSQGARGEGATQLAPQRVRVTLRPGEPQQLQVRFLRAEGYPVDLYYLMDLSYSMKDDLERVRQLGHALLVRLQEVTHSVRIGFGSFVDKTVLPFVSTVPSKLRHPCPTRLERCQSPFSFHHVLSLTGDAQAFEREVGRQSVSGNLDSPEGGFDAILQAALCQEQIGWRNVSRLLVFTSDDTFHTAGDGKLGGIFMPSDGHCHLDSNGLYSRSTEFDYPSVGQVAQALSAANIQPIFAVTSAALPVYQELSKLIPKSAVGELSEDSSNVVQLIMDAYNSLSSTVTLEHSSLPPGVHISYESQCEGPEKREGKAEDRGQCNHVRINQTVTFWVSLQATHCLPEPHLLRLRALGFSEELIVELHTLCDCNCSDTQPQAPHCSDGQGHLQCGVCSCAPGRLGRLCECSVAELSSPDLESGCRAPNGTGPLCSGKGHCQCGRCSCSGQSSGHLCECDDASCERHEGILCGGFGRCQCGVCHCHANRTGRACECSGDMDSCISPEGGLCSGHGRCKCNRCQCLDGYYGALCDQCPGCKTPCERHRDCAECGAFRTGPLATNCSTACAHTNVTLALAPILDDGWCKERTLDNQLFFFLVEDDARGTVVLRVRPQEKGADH
Assay: Integrin α4β7—MAdCAM-1 ELISA competition assay
Assay type: binding
Conditions: for IC50: read-out: ELISA a4b7 Assay IC50; for ELISA Assay Ratio b1/b7: ratio of a4b1 to a4b7 ELISA IC50
Protocol: Integrin α4β7—MAdCAM-1 ELISA Competition Assay
The plate was incubated at 40C overnight. […] The plate was then incubated for 1 hour at room temperature. The plate was washed three times with wash buffer (50 mM Tris, 100 mM NaCl, 1 mM MnCl2, 0.05% Tween). To each well, 50 μl of compound diluted in assay buffer was added by transfer from a compound serial dilution plate. […] The plate was incubated at room temperature with shaking (300 rpm) for 2 hours to reach binding equilibrium. […] The plate was incubated at room temperature for 1 hour under agitation.

Q: With CC(C)C[C@@H]1NC(=O)c2cccc(c2)CN(Cc2ccccc2)C(=O)[C@@H]2CCCN2[C@H](C(=O)NC(C)(C)C)[C@H](C)NC(=O)[C@H]([C@@H](C)O)NC(=O)[C@H](CC(=O)O)NC1=O [Compound 357] as the compound, how does the IC50 read?
A: Its IC50 is 102 nM.

Q: How did the IC50 turn out when CC(C)C[C@@H]1NC(=O)C[C@H](CCCCN)NC(=O)[C@H](Cc2ccc(-c3ccccc3)cc2)NC(=O)[C@@H]2CCCN2[C@H](C(=O)NC(C)(C)C)[C@H](C)NC(=O)[C@H]([C@@H](C)O)NC(=O)[C@H](CC(=O)O)NC1=O [Compound 204] was run?
A: Its IC50 is 63 nM.

Q: COc1cccc(Cl)c1-c1cccc(C[C@@H]2NC(=O)[C@@H]3CCCN3[C@H](C(=O)NC(C)(C)C)[C@H](C)NC(=O)[C@H]([C@@H](C)O)NC(=O)[C@H](CC(=O)O)NC(=O)[C@H](CC(C)C)NC(=O)C[C@H](CCCCN)NC2=O)c1 [Compound 298] was tested. Which IC50 did it give?
A: Its IC50 is 76 nM.

Q: Which IC50 does the source give for COc1cccc(Cl)c1-c1ccccc1C[C@@H]1NC(=O)[C@@H]2CCCN2[C@H](C(=O)NC(C)(C)C)[C@H](C)NC(=O)[C@H]([C@@H](C)O)NC(=O)[C@H](CC(=O)O)NC(=O)[C@H](CC(C)C)NC(=O)C[C@H](CCCCN)NC1=O [Compound 279] here?
A: The IC50 was 100 nM.

Q: With CC(C)C[C@@H]1NC(=O)[C@@H]2c3ccccc3CN2C(=O)[C@@H]2CCCN2[C@H](C(=O)NC(C)(C)C)[C@H](C)NC(=O)[C@H]([C@@H](C)O)NC(=O)[C@H](CC(=O)O)NC1=O [Compound 99] as the compound, how does the IC50 read?
A: The IC50 was 57 nM.

Q: How did the “ELISA Assay Ratio b1/b7” value turn out when CC(C)C[C@@H]1NC(=O)C[C@H](CCCCN)NC(=O)[C@H](Cc2ccc(O)cc2)NC(=O)[C@@H]2CCCN2[C@H](C(=O)NC(C)(C)C)[C@H](C)NC(=O)[C@H]([C@@H](C)OCc2ccccc2)NC(=O)[C@H](CC(=O)O)NC1=O [Compound 200] was run?
A: Its value is 2.6.

Q: And the IC50?
A: The IC50 was 134 nM.

Q: How did the “ELISA Assay Ratio b1/b7” value turn out when CC(C)C[C@@H]1NC(=O)CN(C)C(=O)[C@H](Cc2csc(-c3cccnc3)n2)NC(=O)[C@@H]2CCCN2[C@H](C(=O)NC(C)(C)C)[C@H](C)NC(=O)[C@H]([C@@H](C)O)NC(=O)[C@H](CC(=O)O)NC1=O [Compound 181] was run?
A: The value was 12.6.

Q: CC(C)C[C@@H]1NC(=O)C[C@H]2CCCN2C(=O)[C@H](Cc2ccc(CN)cc2)NC(=O)[C@@H]2CCCN2[C@H](C(=O)NC(C)(C)C)[C@H](C)NC(=O)[C@H]([C@@H](C)O)NC(=O)[C@H](CC(=O)O)NC1=O [Compound 230] was tested. Which IC50 did it give?
A: The IC50 was 120 nM.

Q: For CC(C)C[C@@H]1NC(=O)C[C@H](CCCCN)NC(=O)[C@H](Cc2ccccc2)N(C)C(=O)[C@@H]2CCCN2[C@H](C(=O)NC(C)(C)C)[C@H](C)NC(=O)[C@H]([C@@H](C)O)NC(=O)[C@H](CC(=O)O)NC1=O [Compound 264], which IC50 is on record?
A: Its IC50 is 117 nM.

Q: With COc1ccc(-c2ccccc2C[C@@H]2NC(=O)[C@@H]3CCCN3[C@H](C(=O)NC(C)(C)C)[C@H](C)NC(=O)[C@H]([C@@H](C)O)NC(=O)[C@H](CC(=O)O)NC(=O)[C@H](CC(C)C)NC(=O)[C@H]3CCCCN3C2=O)cc1 [Compound 137] as the compound, how does the “ELISA Assay Ratio b1/b7” value read?
A: Its value is 7.8.

Q: What about the IC50 of the same compound?
A: Its IC50 is 33 nM.

Q: For CC(C)C[C@@H]1NC(=O)C[C@H](CCCCN)NC(=O)[C@H](Cc2ccccc2-c2cccnc2Br)NC(=O)[C@@H]2CCCN2[C@H](C(=O)NC(C)(C)C)[C@H](C)NC(=O)[C@H]([C@@H](C)O)NC(=O)[C@H](CC(=O)O)NC1=O [Compound 297], which IC50 is on record?
A: Its IC50 is 37 nM.

Q: For CC(C)C[C@@H]1NC(=O)[C@H](Cc2csc(-c3cccnc3)n2)NC(=O)[C@@H]2CCCN2[C@H](C(=O)NC(C)(C)C)[C@H](C)NC(=O)[C@H]([C@@H](C)O)NC(=O)[C@H](CC(=O)O)NC1=O [Compound 96], which IC50 is on record?
A: Its IC50 is 138 nM.

Q: For CC(C)C[C@@H]1NC(=O)CNC(=O)[C@H](Cc2ccc(CN)cc2)NC(=O)[C@@H]2CCCN2[C@H](C(=O)NC(C)(C)C)[C@H](C)NC(=O)[C@H]([C@@H](C)O)NC(=O)[C@H](CC(=O)O)NC1=O [Compound 165], which “ELISA Assay Ratio b1/b7” value is on record?
A: The value was 22.8.

Q: And the IC50?
A: Its IC50 is 128 nM.

Q: How did the IC50 turn out when CC(C)C[C@@H]1NC(=O)c2ccc(-c3cccc(CN)c3)c(c2)CNC(=O)[C@@H]2CCCN2[C@H](C(=O)NC(C)(C)C)[C@H](C)NC(=O)[C@H]([C@@H](C)O)NC(=O)[C@H](CC(=O)O)NC1=O [Compound 382] was run?
A: Its IC50 is 12 nM.

Source: US11713338B2, “Cyclic peptides multimers targeting α-4-β-7 integrin” (priority 2016, dated 2023)
